Reference: US20250144223A1, “PROTEIN DEGRADATION COMPOUND BASED ON NAMPT TARGET PROTEIN AND APPLICATION THEREOF” (GLUETACS THERAPEUTICS (SHANGHAI) CO., LTD., priority 2021, published 2025)

The molecules below were run on Jurkat (assay: CellTiter-Glo Luminescent Cell Viability Assay, half inhibitory concentration (IC50) on tumor cell proliferation). Conditions: Homo sapiens, Jurkat cells, 72 h treatment.
Assay type: cell-based
Method: The tumor cells used herein were cultured in a cell culture medium at 37° C. in an incubator with 5% CO2, where the cell culture medium was supplemented with 10% FBS, as well as penicillin at a final concentration of 100 U/mL and streptomycin at a final concentration of 100 μg/mL. Prior to experimentation, all cells used were identified as correct cells by STR cells, and were negative for mycoplasma through routine testing.
IC50 values of the compounds of the present disclosure (including the compounds in Table 1 and compounds of examples) were measured using the CellTiter-Glo® Luminescent Cell Viability Assay kit from Promega Corporation. Assay details are as follows: Cells were seeded in 100 μL RPMI1640 medium containing serum at a density of 20,000 cells/well. After 24 h, the inoculated cells were treated with the compounds of the present disclosure which were serially diluted. After the cells were treated with the compounds of the present disclosure for 72 h, the CellTiter-Glo® reagent was added to the culture medium for cell viability assessment according to the instructions provided with the kit. DMSO served as the negative control, and FK866 inhibitor was used as the positive control, both treated with the same protocol as the compounds of the present disclosure. The growth inhibition of the compounds of the present disclosure on cells was plotted by Prism Graphpad software, and the IC50 values of the compounds of the present disclosure were calculated therefrom.

SMILES | IC50
O=C(/C=C/c1cccnc1)NCCCCC1CCN(C(=O)c2ccc(N3CCN(C(=O)COCCOCCOCCOCCOCCSc4cccc5c4CN(C4CCC(=O)NC4=O)C5=O)CC3)cc2)CC1 (stereo not drawn) [SIAIS631118, (E)-N-(4-(1-(4-(4-(17-((2-(2,6-dioxopiperidin-3-yl)-1-oxoisoindolin-4-yl)thio)-3,6,9,12,15-pentaoxaheptadecanoyl)piperazin-1-yl)benzoyl)piperidin-4-yl)butyl)-3-(pyridin-3-yl)acrylamide] | 66.6 nM
O=C(/C=C/c1cccnc1)NCCCCC1CCN(C(=O)c2ccc(N3CCN(CCCC#Cc4cccc5c4C(=O)N(C4CCC(=O)NC4=O)C5=O)CC3)cc2)CC1 (stereo not drawn) [SIAIS631119, (E)-N-(4-(1-(4-(4-(5-(2-(2,6-dioxopiperidin-3-yl)-1,3-dioxoisoindolin-4-yl)pent-4-yn-1-yl)piperazin-1-yl)benzoyl)piperidin-4-yl)butyl)-3-(pyridin-3-yl)acrylamide] | 623 nM
O=C(/C=C/c1cccnc1)NCCCCC1CCN(C(=O)c2ccc(N3CCN(CCCCC#Cc4cccc5c4C(=O)N(C4CCC(=O)NC4=O)C5=O)CC3)cc2)CC1 (stereo not drawn) [SIAIS631120, (E)-N-(4-(1-(4-(4-(6-(2-(2,6-dioxopiperidin-3-yl)-1,3-dioxoisoindolin-4-yl)hex-5-yn-1-yl)piperazin-1-yl)benzoyl)piperidin-4-yl)butyl)-3-(pyridin-3-yl)acrylamide] | 71 nM
O=C(/C=C/c1cccnc1)NCCCCC1CCN(C(=O)c2ccc(N3CCN(CCCCCCC#Cc4cccc5c4C(=O)N(C4CCC(=O)NC4=O)C5=O)CC3)cc2)CC1 (stereo not drawn) [SIAIS631121, (E)-N-(4-(1-(4-(4-(8-(2-(2,6-dioxopiperidin-3-yl)-1,3-dioxoisoindolin-4-yl)oct-7-yn-1-yl)piperazin-1-yl)benzoyl)piperidin-4-yl)butyl)-3-(pyridin-3-yl)acrylamide] | 63.9 nM
O=C(/C=C/c1cccnc1)NCCCCC1CCN(C(=O)c2ccc(N3CCC(N4CCNCC4)CC3)nn2)CC1 [SIAIS631135, (E)-N-(4-(1-(6-(4-(piperazin-1-yl)piperidin-1-yl)pyridazine-3-carbonyl)piperidin-4-yl)butyl)-3-(pyridin-3-yl)acrylamide] | 725 nM
O=C(/C=C/c1cccnc1)NCCCCC1CCN(C(=O)c2ccc(C3CCN(CCCCCC#Cc4cccc5c4CN(C4CCC(=O)NC4=O)C5=O)CC3)cc2)CC1 (stereo not drawn) [SIAIS631139, (E)-N-(4-(1-(4-(1-(7-(2-(2,6-dioxopiperidin-3-yl)-1-oxoisoindolin-4-yl)hept-6-yn-1-yl)piperidin-4-yl)benzoyl)piperidin-4-yl)butyl)-3-(pyridin-3-yl)acrylamide] | 5.23 nM
O=C(/C=C/c1cccnc1)NCCCCC1CCN(C(=O)c2ccc(C3CCN(CCCCCCC#Cc4cccc5c4CN(C4CCC(=O)NC4=O)C5=O)CC3)cc2)CC1 (stereo not drawn) [SIAIS631140, (E)-N-(4-(1-(4-(1-(8-(2-(2,6-dioxopiperidin-3-yl)-1-oxoisoindolin-4-yl)oct-7-yn-1-yl)piperidin-4-yl)benzoyl)piperidin-4-yl)butyl)-3-(pyridin-3-yl)acrylamide] | 9.7 nM
O=C(/C=C/c1cccnc1)NCCCCC1CCN(C(=O)c2ccc(C3CCN(CCCCSc4cccc5c4CN(C4CCC(=O)NC4=O)C5=O)CC3)cc2)CC1 (stereo not drawn) [SIAIS631141, (E)-N-(4-(1-(4-(1-(4-((2-(2,6-dioxopiperidin-3-yl)-1-oxoisoindolin-4-yl)thio)butyl)piperidin-4-yl)benzoyl)piperidin-4-yl)butyl)-3-(pyridin-3-yl)acrylamide] | 5.36 nM
O=C(/C=C/c1cccnc1)NCCCCC1CCN(C(=O)c2ccc(N3CCNCC3)nn2)CC1 [SIAIS632004, (E)-N-(4-(1-(6-(piperazin-1-yl)pyridazine-3-carbonyl)piperidin-4-yl)butyl)-3-(pyridin-3-yl)acrylamide] | 362 nM
O=C(/C=C/c1cccnc1)NCCCCC1CCN(C(=O)c2ccc(N3CCC(N4CCN(CCCCCC#Cc5cccc6c5CN(C5CCC(=O)NC5=O)C6=O)CC4)CC3)nn2)CC1 (stereo not drawn) [SIAIS632005, (E)-N-(4-(1-(6-(4-(4-(7-(2-(2,6-dioxopiperidin-3-yl)-1-oxoisoindolin-4-yl)hept-6-yn-1-yl)piperazin-1-yl)piperidin-1-yl)pyridazine-3-carbonyl)piperidin-4-yl)butyl)-3-(pyridin-3-yl)acrylamide] | 3.98 nM
O=C(/C=C/c1cccnc1)NCCCCC1CCN(C(=O)c2ccc(N3CCC(N4CCN(CCCCCCC#Cc5cccc6c5CN(C5CCC(=O)NC5=O)C6=O)CC4)CC3)nn2)CC1 (stereo not drawn) [SIAIS632006, (E)-N-(4-(1-(6-(4-(4-(8-(2-(2,6-dioxopiperidin-3-yl)-1-oxoisoindolin-4-yl)oct-7-yn-1-yl)piperazin-1-yl)piperidin-1-yl)pyridazine-3-carbonyl)piperidin-4-yl)butyl)-3-(pyridin-3-yl)acrylamide] | 6.39 nM
O=C(/C=C/c1cccnc1)NCCCCC1CCN(C(=O)c2ccc(N3CCC(N4CCN(CCCCSc5cccc6c5CN(C5CCC(=O)NC5=O)C6=O)CC4)CC3)nn2)CC1 (stereo not drawn) [SIAIS632007, (E)-N-(4-(1-(6-(4-(4-(4-((2-(2,6-dioxopiperidin-3-yl)-1-oxoisoindolin-4-yl)thio)butyl)piperazin-1-yl)piperidin-1-yl)pyridazine-3-carbonyl)piperidin-4-yl)butyl)-3-(pyridin-3-yl)acrylamide] | 3.59 nM
O=C(/C=C/c1cccnc1)NCCCCC1CCN(C(=O)c2ccc(N3CCN(CCCCCC#Cc4cccc5c4CN(C4CCC(=O)NC4=O)C5=O)CC3)nn2)CC1 (stereo not drawn) [SIAIS632010, (E)-N-(4-(1-(6-(4-(7-(2-(2,6-dioxopiperidin-3-yl)-1-oxoisoindolin-4-yl)hept-6-yn-1-yl)piperazin-1-yl)pyridazine-3-carbonyl)piperidin-4-yl)butyl)-3-(pyridin-3-yl)acrylamide] | 8.35 nM
O=C(/C=C/c1cccnc1)NCCCCC1CCN(C(=O)c2ccc(N3CCN(CCCCCCC#Cc4cccc5c4CN(C4CCC(=O)NC4=O)C5=O)CC3)nn2)CC1 (stereo not drawn) [SIAIS632011, (E)-N-(4-(1-(6-(4-(8-(2-(2,6-dioxopiperidin-3-yl)-1-oxoisoindolin-4-yl)oct-7-yn-1-yl)piperazin-1-yl)pyridazine-3-carbonyl)piperidin-4-yl)butyl)-3-(pyridin-3-yl)acrylamide] | 9.3 nM
O=C(/C=C/c1cccnc1)NCCCCC1CCN(C(=O)c2ccc(N3CCN(CCCCSc4cccc5c4CN(C4CCC(=O)NC4=O)C5=O)CC3)nn2)CC1 (stereo not drawn) [SIAIS632012, (E)-N-(4-(1-(6-(4-(4-((2-(2,6-dioxopiperidin-3-yl)-1-oxoisoindolin-4-yl)thio)butyl)piperazin-1-yl)pyridazine-3-carbonyl)piperidin-4-yl)butyl)-3-(pyridin-3-yl)acrylamide] | 1.66 nM
O=C(/C=C/c1cccnc1)NCCCCC1CCN(C(=O)c2ccc(N3CCN(C(=O)CNc4cccc5c4CN(C4CCC(=O)NC4=O)C5=O)CC3)cc2)CC1 (stereo not drawn) [SIAIS632014, (E)-N-(4-(1-(4-(4-((2-(2,6-dioxopiperidin-3-yl)-1-oxoisoindolin-4-yl)glycyl)piperazin-1-yl)benzoyl)piperidin-4-yl)butyl)-3-(pyridin-3-yl)acrylamide] | 6.81 nM
O=C(/C=C/c1cccnc1)NCCCCC1CCN(C(=O)c2ccc(N3CCN(C(=O)CCCNc4cccc5c4CN(C4CCC(=O)NC4=O)C5=O)CC3)cc2)CC1 (stereo not drawn) [SIAIS632015, (E)-N-(4-(1-(4-(4-(4-((2-(2,6-dioxopiperidin-3-yl)-1-oxoisoindolin-4-yl)amino)butanoyl)piperazin-1-yl)benzoyl)piperidin-4-yl)butyl)-3-(pyridin-3-yl)acrylamide] | 523 nM
O=C(/C=C/c1cccnc1)NCCCCC1CCN(C(=O)c2ccc(N3CCN(C(=O)CCCCNc4cccc5c4CN(C4CCC(=O)NC4=O)C5=O)CC3)cc2)CC1 (stereo not drawn) [SIAIS632016, (E)-N-(4-(1-(4-(4-(5-((2-(2,6-dioxopiperidin-3-yl)-1-oxoisoindolin-4-yl)amino)pentanoyl)piperazin-1-yl)benzoyl)piperidin-4-yl)butyl)-3-(pyridin-3-yl)acrylamide] | 64.4 nM
O=C(/C=C/c1cccnc1)NCCCCC1CCN(C(=O)c2ccc(N3CCN(C(=O)CCCCCNc4cccc5c4CN(C4CCC(=O)NC4=O)C5=O)CC3)cc2)CC1 (stereo not drawn) [SIAIS632017, (E)-N-(4-(1-(4-(4-(6-((2-(2,6-dioxopiperidin-3-yl)-1-oxoisoindolin-4-yl)amino)hexanoyl)piperazin-1-yl)benzoyl)piperidin-4-yl)butyl)-3-(pyridin-3-yl)acrylamide] | 21.2 nM
O=C(/C=C/c1cccnc1)NCCCCC1CCN(C(=O)c2ccc(N3CCN(C(=O)CCCCCCNc4cccc5c4CN(C4CCC(=O)NC4=O)C5=O)CC3)cc2)CC1 (stereo not drawn) [SIAIS632018, (E)-N-(4-(1-(4-(4-(7-((2-(2,6-dioxopiperidin-3-yl)-1-oxoisoindolin-4-yl)amino)heptanoyl)piperazin-1-yl)benzoyl)piperidin-4-yl)butyl)-3-(pyridin-3-yl)acrylamide] | 55.5 nM
O=C(/C=C/c1cccnc1)NCCCCC1CCN(C(=O)c2ccc(N3CCN(C(=O)CSc4cccc5c4C(=O)N(C4CCC(=O)NC4=O)C5=O)CC3)cc2)CC1 (stereo not drawn) [SIAIS632027, (E)-N-(4-(1-(4-(4-(2-((2-(2,6-dioxopiperidin-3-yl)-1,3-dioxoisoindolin-4-yl)thio)acetyl)piperazin-1-yl)benzoyl)piperidin-4-yl)butyl)-3-(pyridin-3-yl)acrylamide] | 294 nM
